IC50 data for 16 molecules are collected here from patent US9802918B2, “Pyridineamine compounds useful as Pim kinase inhibitors” (Incyte Corporation, priority 2015, dated 2017).

Holding throughout (format): biochemical
The target in experiment [1] is Pim-3 (Homo sapiens (Human), UniProt Q86V86). Briefly: Pim-3 kinase assay. Conditions: 1 mM ATP; read-out: Pim3 IC50. In a few lines:
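Human Pim-3 at 1.25 pM phosphorylated […] biotin-BAD peptide with 1 mM ATP for 1 h at 25° C, in pH 7.5 Tris buffer with 5 mM MgCl2 and 5 mM DTT. Reactions were stopped with EDTA buffer containing phospho-Bad (Ser112) antibody and AlphaScreen donor/acceptor beads. Plates were read after 1 h dark incubation at room temperature.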

In experiment [2] the target is Pim-1 (Homo sapiens (Human), UniProt P11309). The experiment is described as follows: Pim-1 kinase assay. Conditions: 1 mM ATP; read-out: Pim1 IC50. As to the method:
Supplementation of the STOP buffer with beads and stopping the reactions were done under reduced light. Prior to the stopping reactions STOP buffer with beads was preincubated for 1 h in the dark at room temperature. After stopping the reactions, plates were incubated for 1 h in the dark at room temperature before reading on a PHERAstar FS plate reader (BMG Labtech) under reduced light.

Experiment [3] addresses Pim-2 (Homo sapiens (Human), UniProt Q9P1W9). The experiment is described as follows: Pim-2 kinase assay. Conditions: 1 mM ATP; read-out: Pim2 IC50. In a few lines:
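Pim-2 (1 nM) with fluorescein-CREBtide ([…]) and 1 mM ATP in Tris pH 7.5, MgCl2, DTT buffer, 2 h at 25 °C. Stopped with EDTA plus Tb-anti-CREB pSer133 antibody; phosphorylation read by TR-FRET after 30 min.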

Each structure is given as a SMILES string.

Pim-2, sequence (Q9P1W9 whole entry): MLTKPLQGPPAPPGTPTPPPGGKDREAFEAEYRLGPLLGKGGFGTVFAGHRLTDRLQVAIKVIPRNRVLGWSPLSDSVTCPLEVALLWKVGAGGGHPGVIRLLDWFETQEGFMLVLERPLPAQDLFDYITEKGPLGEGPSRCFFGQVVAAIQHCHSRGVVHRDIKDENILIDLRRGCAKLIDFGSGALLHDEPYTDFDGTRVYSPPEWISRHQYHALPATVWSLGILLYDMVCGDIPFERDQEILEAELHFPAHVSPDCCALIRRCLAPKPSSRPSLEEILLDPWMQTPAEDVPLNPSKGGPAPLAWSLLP
Pim-1, sequence (P11309 whole entry): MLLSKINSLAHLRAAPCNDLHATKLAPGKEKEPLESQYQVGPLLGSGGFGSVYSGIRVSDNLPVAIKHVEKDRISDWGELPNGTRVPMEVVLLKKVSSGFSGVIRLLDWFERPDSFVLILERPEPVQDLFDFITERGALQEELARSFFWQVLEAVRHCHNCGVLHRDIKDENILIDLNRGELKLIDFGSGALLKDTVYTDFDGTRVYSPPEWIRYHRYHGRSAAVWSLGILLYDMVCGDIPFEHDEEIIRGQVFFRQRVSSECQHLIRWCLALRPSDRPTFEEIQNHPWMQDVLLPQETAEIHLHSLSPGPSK

`C[C@@H]1C[C@H](N)CN(c2ccncc2NCc2ccc(F)c(-c3c(F)cc(C4CCOCC4)cc3F)n2)C1` [Example 64, 4-[(3S,5R)-3-Amino-5-methylpiperidin-1-yl]-N-({6-[2,6-difluoro-4-(tetrahydro-2H-pyran-4-yl)phenyl]-5-fluoropyridin-2-yl}methyl)pyridin-3-amine]: the results for the IC50 in experiment [1], in experiment [2] and in experiment [3] were not above 10 nM, less than 10 nM and not above 100 nM, respectively.
On the same counts, the results for `N[C@H]1C[C@@H](C(F)(F)F)CN(c2ccncc2NCc2ccc(F)c(-c3c(F)cc(C4CCOCC4)cc3F)n2)C1` [Example 65, 4-((3S,5R)-3-Amino-5-(trifluoromethyl)piperidin-1-yl)-N-((6-(2,6-difluoro-4-(tetrahydro-2H-pyran-4-yl)phenyl)-5-fluoropyridin-2-yl)methyl)pyridin-3-amine] are not above 10 nM, less than 10 nM and not above 100 nM.
On the same counts, the results for `C[C@@H]1C[C@H](N)C[C@H](c2ccncc2NCc2ccc(F)c(-c3c(F)cccc3F)n2)C1` [Example 66, 4-[(1R,3S,5S)-3-Amino-5-methylcyclohexyl]-N-{[6-(2,6-difluorophenyl)-5-fluoropyridin-2-yl]methyl}pyridin-3-amine] are not above 10 nM, less than 10 nM and 100 to 1000 nM.
For `C[C@@H]1C[C@H](N)C[C@H](c2ccncc2NCc2ccc(F)c(-c3c(F)cc(C4(O)CCC4)cc3F)n2)C1` [Example 67, 1-(4-{6-[({4-[(1R,3S,5S)-3-Amino-5-methylcyclohexyl]pyridin-3-yl}amino)methyl]-3-fluoropyridin-2-yl}-3,5-difluorophenyl)cyclobutanol], the IC50 (usually the concentration at which inhibition is half-maximal) in experiment [1] is not above 10 nM; in experiment [2], less than 10 nM; in experiment [3], 100 to 1000 nM.
On the same counts, the results for `C[C@@H]1C[C@H](N)C[C@H](c2ccncc2NCc2ccc(F)c(-c3c(F)cc(N4CCOCC4)cc3F)n2)C1` [Example 68, 4-[(1R,3S,5S)-3-Amino-5-methylcyclohexyl]-N-{[6-(2,6-difluoro-4-morpholin-4-ylphenyl)-5-fluoropyridin-2-yl]methyl}pyridin-3-amine] are not above 10 nM, less than 10 nM and 100 to 1000 nM.
For `C[C@@H]1C[C@H](N)CN(c2ccncc2NCc2nc(-c3c(F)cccc3F)sc2N)C1` [Example 69, N-{[5-Amino-2-(2,6-difluorophenyl)-1,3-thiazol-4-yl]methyl}-4-[(3S,5R)-3-amino-5-methylpiperidin-1-yl]pyridin-3-amine] the same measures were not above 10 nM, less than 10 nM and 1000 to 10000 nM.
In the case of `C[C@@H]1C[C@H](N)CN(c2ccncc2NCc2ccc(F)c(-c3c(F)cc(N4CC[C@@H](F)C4)cc3F)n2)C1` [Example 70, 4-[(3S,5R)-3-Amino-5-methylpiperidin-1-yl]-N-[(6-{2,6-difluoro-4-[(3R)-3-fluoropyrrolidin-1-yl]phenyl}-5-fluoropyridin-2-yl)methyl]pyridin-3-amine], the IC50 was not above 10 nM in experiment [1], less than 10 nM in experiment [2] and 100 to 1000 nM in experiment [3].
Consider `C[C@@H]1C[C@H](N)CN(c2ccncc2NCc2ccc(F)c(-c3c(F)cc(N4CCCC(F)C4)cc3F)n2)C1` (stereo partly drawn) [Example 71, 4-[(3S,5R)-3-Amino-5-methylpiperidin-1-yl]-N-({6-[2,6-difluoro-4-(3-fluoropiperidin-1-yl)phenyl]-5-fluoropyridin-2-yl}methyl)pyridin-3-amine], for which the IC50 in experiment [1] is not above 10 nM; in experiment [2], less than 10 nM; in experiment [3], not above 100 nM.
For `C[C@@H]1C[C@H](N)CN(c2ccncc2NCc2ccc(F)c(-c3c(F)cc(N4CC(C)(O)C4)cc3F)n2)C1` [Example 72, 1-(4-{6-[({4-[(3S,5R)-3-Amino-5-methylpiperidin-1-yl]pyridin-3-yl}amino)methyl]-3-fluoropyridin-2-yl}-3,5-difluorophenyl)-3-methylazetidin-3-ol] the same measures were not above 10 nM, less than 10 nM and not above 100 nM.
For `C[C@H]1CN(c2ccncc2NCc2ccc(F)c(-c3c(F)cc(O[C@@H]4CCOC4)cc3F)n2)C[C@@H](N)[C@@H]1O` [Example 73, (3R,4R,5S)-3-Amino-1-(3-{[(6-{2,6-difluoro-4-[(3R)-tetrahydrofuran-3-yloxy]phenyl}-5-fluoropyridin-2-yl)methyl]amino}pyridin-4-yl)-5-methylpiperidin-4-ol], the values for the IC50 in experiment [1], in experiment [2] and in experiment [3] were not above 10 nM, less than 10 nM and not above 100 nM, respectively.
For `C[C@@H]1C[C@H](N)CN(c2ccncc2NCc2ccc(F)c(-c3c(F)cc(O[C@@H]4CCOC4)cc3F)n2)C1` [Example 74, 4-[(3S,5R)-3-Amino-5-methylpiperidin-1-yl]-N-[(6-{2,6-difluoro-4-[(3R)-tetrahydrofuran-3-yloxy]phenyl}-5-fluoropyridin-2-yl)methyl]pyridin-3-amine], the IC50 was not above 10 nM in experiment [1], less than 10 nM in experiment [2] and not above 100 nM in experiment [3].
With `C[C@H]1CN(c2ccncc2NCc2ccc(F)c(-c3c(F)cc(O[C@H]4CCOC4)cc3F)n2)C[C@@H](N)[C@@H]1O` [Example 75, (3R,4R,5S)-3-Amino-1-(3-{[(6-{2,6-difluoro-4-[(3S)-tetrahydrofuran-3-yloxy]phenyl}-5-fluoropyridin-2-yl)methyl]amino}pyridin-4-yl)-5-methylpiperidin-4-ol], the IC50 in experiment [1] is not above 10 nM; in experiment [2], less than 10 nM; in experiment [3], not above 100 nM.
Turning to `C[C@@H]1C[C@H](N)CN(c2ccncc2NCc2ccc(F)c(-c3c(F)cc(O[C@H]4CCOC4)cc3F)n2)C1` [Example 76, 4-[(3S,5R)-3-Amino-5-methylpiperidin-1-yl]-N-[(6-{2,6-difluoro-4-[(3S)-tetrahydrofuran-3-yloxy]phenyl}-5-fluoropyridin-2-yl)methyl]pyridin-3-amine], the IC50 in experiment [1] was not above 10 nM; in experiment [2], less than 10 nM; in experiment [3] it was not above 100 nM.
For `C[C@H]1CN(c2ccncc2NCc2ccc(F)c(-c3c(F)cc(OC4CCOCC4)cc3F)n2)C[C@@H](N)[C@@H]1O` [Example 77, (3R,4R,5S)-3-Amino-1-{3-[({6-[2,6-difluoro-4-(tetrahydro-2H-pyran-4-yloxy)phenyl]-5-fluoropyridin-2-yl}methyl)amino]pyridin-4-yl}-5-methylpiperidin-4-ol] the same measures were not above 10 nM, less than 10 nM and not above 100 nM.
For `C[C@@H]1C[C@H](N)CN(c2ccncc2NCc2ccc(F)c(-c3c(F)cc(OC4CCOCC4)cc3F)n2)C1` [Example 78, 4-[(3S,5R)-3-Amino-5-methylpiperidin-1-yl]-N-({6-[2,6-difluoro-4-(tetrahydro-2H-pyran-4-yloxy)phenyl]-5-fluoropyridin-2-yl}methyl)pyridin-3-amine], the IC50 was not above 10 nM in experiment [1], less than 10 nM in experiment [2] and not above 100 nM in experiment [3].
On to `COc1cc(F)c(-c2nc(CNc3cnccc3N3C[C@@H](N)[C@H](O)[C@@H](C)C3)ccc2F)c(F)c1` [Example 82, (3R,4R,5S)-3-Amino-1-[3-({[6-(2,6-difluoro-4-methoxyphenyl)-5-fluoropyridin-2-yl]methyl}amino)pyridin-4-yl]-5-methylpiperidin-4-ol], for which the IC50 in experiment [1] was not above 10 nM; in experiment [2] it was less than 10 nM; in experiment [3], not above 100 nM.
